Laboratory results reported in patent US20100048545A1, “Compounds and Compositions for Use in the Prevention and Treatment of Disorders of Fat Metabolism and Obesity” (INNODIA INC., priority 2006, published 2010).
“Also recorded” adds a separate entry of the source. Where a name gives a salt, the structure may show the parent alone. Each block holds one compound with its values, some of them ahead of it.

Tests used:
[1] = test system: C57BL/6 mice fed a high fat diet; assay: Analogs and isomers of 4-hydroxyisoleucine on body weight gain in C57BL/6 mice fed a high fat diet, 3 days; type: in vivo; settings: for body weight gain induced by the high fat diet: 100 mg/kg twice daily oral gavage; for efficacy relative to compound 14a: 100 mg/kg twice daily
Method: C57BL/6 mice were received at 6-7 weeks of age and fed a standard commercial chow for 1 week (acclimation period). The animals were randomized based on their body weight values, into control and treatment groups (n=6). Then, animals were shifted to a high fat diet (60% of calories from fat) and treated twice daily by oral gavage with 4-hydroxyisoleucine (4-OH, compound 14a) or different analogs and isomers of 4-OH at the dose of 100 mg per kg of body weight for 3 days. The control group (Control HFD) received vehicle (water) alone and a group was kept under standard chow (Control Lean). Body weight of the mice was recorded daily. Two different experiments were run and the effect on body weight gain of selected analogs and isomers according to the invention is presented in FIG. 30A (Experiment 1) and FIG. 30B (Experiment 2).

[2] = test system: 3T3-L1 pre-adipocytes; assay: Lipid accumulation in 3T3-L1 adipocytes (Oil red O, OD 490 nm); type: cell-based; settings: 7 days in differentiation medium, compared to controls
Source text: The objective of the study was to evaluate if the compounds of the present invention, and more particularly analogs of 4-Hydroxyisoleucine, can decrease the accumulation of lipids in pre-adipocytes induced to differentiate into functional adipocytes. […] Treating the fibroblasts with a differentiation medium containing insulin, dexamethasone and […] (IBMX) in the presence of serum induces these cells to become terminally differentiated adipocytes. These cells convert to spherical shape and accumulate lipid droplets.
3T3-L1 were cultured in presence of DMEM and 10% FBS for a week in 6-well plates. The medium was than changed to induce differentiation of cells into mature adipocytes. The medium consisted of DMEM, 10% FBS, 0.5 mM IBMX, 0.01 mg/ml insulin and 0.1 μM dexamethasone, with or without compounds of the present invention. The cells were cultured for 7 days and then stained with Oil red 0, a dye which specifically stain lipids. The fat content of treated and untreated cells was quantified by measuring the optical density (OD, 490 nm) with a spectrophotometer.

[3] = test system: DIO-mice
Source text: The objective of this study was to evaluate the effect of chronic administration of 4-hydroxyisoleucine (4-OH, compound 14a) and Rosiglitazone, administered alone or in combination, on food consumption and body weight gain of DIO-mice. Both parameters were monitored for 1 week prior to the commencement of treatment, then for the 28 days of treatment and for an additional 7 days post-treatment.
A total of 72 animals were used in the study. The animals were distributed into 6 groups (5 treated, 1 control group, all on high fat diet). Each group was composed of 12 animals. The mice were randomized according to body weight and basal glycemia values following a 5±0.5 hour fasting period.
For the four weeks of treatment, the test articles were dissolved in reverse osmosis water. 4-Hydroxyisoleucine was aliquoted and kept at 4° C. (administration to groups 2, 3, and 6), while Rosiglitazone was freshly prepared daily and kept at 4° C. between the AM and PM administration to groups 4, 5, and 6. Control animals received reverse osmosis water twice daily (group 1). Mice from groups 2 and 3 were treated twice daily with 4-OH at 50 and 100 mg/kg, respectively. Animals from groups 4 and 5 received 1.5 and 5 mg/kg of Rosiglitazone, respectively. […] All groups were treated by oral gavage. Treatment commenced on Day 0 and ended on Day 28 (FIGS. 18A and 18C.
Food consumption was measured and averaged on a weekly basis beginning one week before the start of treatment as shown in FIGS. 18B and 18D as week −1. Similarly, food consumption was monitored for one week after treatment was stopped and is shown as week 5 in FIGS. 18B and 18D, In FIG. 18B, the food consumption over time for various treatment groups is illustrated by the bar graph.

[4] = test system: obese mice; assay: Compound 22 and 4-hydroxyisoleucine on weight gain of obese mice, 21 days; type: in vivo, C57BL/6 mice
Method: The objective of the following study was to evaluate the effect of the lactone form of 4-hydroxyisoleucine (compound 22) on the weight gain of obese mice. 40 C57BL/6 mice were fed a high fat diet (60% of calories from fat) for 6 weeks in order to induce obesity. Animals were than randomized to 5 study groups of 8 mice each according to their body weight values. Thereafter, the animals were treated orally twice daily with either the water vehicle, 50 mg/kg of compound 22, 100 mg/kg of compound 22, 50 mg/kg of 4-hydroxyisoleucine or 100 mg/kg of 4-hydroxyisoleucine. The treatment lasted 21 days and body weight of mice were determined daily from day 1 to day 21 of the study.

[5] = test system: Diet-Induced Obesity (DIO) mouse model; assay: Compound 13e on body weight gain in the Diet-Induced Obesity (DIO) mouse model, 21 days; type: in vivo, C57BL/6 mice
Method: The objective of this study was to determine the effect of one analog according to the invention, namely Compound 13e, on body weight gain in the Diet-Induced Obesity (DIO) mouse model.
C57BL/6 mice were received at 7-8 weeks of age and fed a high fat diet (60% of calories from fat) for 8 weeks. Fasted glycemia and body weight values were used to randomize the mice into control and treatment groups (n=8). The average basal glycemia was between 213 and 215 mg/dL for all groups. The animals were treated twice daily by oral gavage with Compound 13e (25 or 50 mg per kg of body weight), and the control group received vehicle (200 mM bicarbonate buffer/0.1% Tween-20™, pH=9) alone. The animals were treated for 21 days. Body weight of the mice was measured on a frequent basis during the treatment. At the end of the study, the epididymal fat pads were isolated and weighed. Data are expressed as mean±SEM of body weight and mean±SEM of fat pad weight.

[6] = test system: Diet Induced Obesity (DIO)-Mice; type: in vivo
Method: A total of 40 animals were used in the study. The animals were distributed into 5 groups (4 treated, 1 control group, all on high fat diet). Each group was composed of 8 animals.
4-OH was aliquoted and kept at 4° C. […] Mice from groups 4 and 5 were treated twice daily with 50 and 100 mg/kg of compound 65a. All groups were treated by oral gavage. Treatment commenced on Day 0 and ended on Day 7 (FIG. 37A). Body weights were measured daily.

Structure (SMILES): COC(=O)[C@@H]1C[C@H](O)CN1 [Compound 76, cis-4-hydroxyproline methyl ester HCl salt]
body weight gain induced by the high fat diet [1]: reduced body weight gain induced by the high fat diet
lipid accumulation ([2]; HCl salt): dose-dependently decreased the lipid accumulation; also recorded: decrease of accumulation of lipids

Structure (SMILES): COC(=O)[C@H]1C[C@@H](O)CN1 [Compound 202]
body weight gain induced by the high fat diet [1]: reduced body weight gain induced by the high fat diet

food consumption ([3]; Rosiglitazone 1.5 mg/kg alone): increase in food consumption
Structure (SMILES): CN(CCOc1ccc(CC2SC(=O)NC2=O)cc1)c1ccccn1 (stereo not shown) [Rosiglitazone, reference compound]
weight ([3]; Rosiglitazone alone, relative to the other groups): significant increase in weight relative to the other groups

Structure (SMILES): CC(=O)N[C@@H]1C(=O)O[C@@H](C)[C@@H]1C [Compound 104]
body weight gain induced by the high fat diet [1]: reduced body weight gain induced by the high fat diet

Structure (SMILES): O=C(O)[C@@H]1C[C@H](O)CN1 [Compound 75, cis-4-hydroxyproline]
body weight gain induced by the high fat diet [1]: reduced body weight gain induced by the high fat diet
lipid accumulation [2]: dose-dependently decreased the lipid accumulation; also recorded: decrease of accumulation of lipids

Structure (SMILES): C[C@H]([C@@H](C)O)[C@@H](N)C(=O)O [Compound 14aa, (2R,3S,4R)-4-Hydroxyisoleucine]
body weight gain induced by the high fat diet [1]: reduced body weight gain induced by the high fat diet

Structure (SMILES): CC1C(O)CN[C@@H]1C(=O)O (stereo partly shown) [Compound 22]
body weight ([4]; 100 mg/kg orally twice daily, 21 days, vs water control, p<0.01): significant reduction of body weight compared to the water control group
white fat mass (epididymal fat) ([4]; 100 mg/kg, end of treatment, p<0.01): loss of the white fat mass (epididymal fat)
weight loss relative to 4-hydroxyisoleucine ([4]; same dose level of 100 mg/kg, p<0.05): significantly greater than the weight loss caused by 4-hydroxyisoleucine

Structure (SMILES): CC(C)(C)C(O)CC(N)C(=O)O (stereo not shown) [Compound 62, 2-amino-4-hydroxy-5,5-dimethyl-hexanoic acid]
efficacy relative to compound 14a [1]: greater efficacy than the SRS isomer of 4-OH
body weight gain induced by the high fat diet [1]: reduced body weight gain induced by the high fat diet
lipid accumulation [2]: dose-dependently decreased the lipid accumulation; also recorded: decrease of accumulation of lipids

Structure (SMILES): N[C@H](C(=O)O)[C@@H]1CCCC[C@H]1O [Compound 13e, (S)-2-amino-2-((1S,2R)-2-hydroxycyclohexyl)acetic acid]
epididymal fat pad weight ([5]; 25 or 50 mg/kg twice daily): reduction of epididymal fat pad weight
body weight gain (delta of body weight from Day 0) ([5]; 25 or 50 mg/kg twice daily oral gavage): reduction of body weight; also recorded: reduction in body weight gain compared to vehicle treated mice and this effect was dose-dependent

Structure (SMILES): CC1(O)CC(C(=O)O)NCC1O (stereo not shown) [Compound 65a, 4-methyl-4,5-dihydroxypipecolic acid]
efficacy relative to compound 14a [1]: greater efficacy than the SRS isomer of 4-OH
body weight gain induced by the high fat diet [1]: reduced body weight gain induced by the high fat diet
tolerability of treatment ([6]; 50 and 100 mg/kg twice daily oral gavage, one week): well tolerated
weight gain ([6]; 50 and 100 mg/kg twice daily, first week of treatment): moderation of weight gain was observed
food consumption ([6]; first week of treatment): slight decrease in food consumption
